{
  "source": "paper PMC4876117",
  "about": "“Functional Dissection of the Bipartite Active Site of the Class I Coenzyme A (CoA)-Transferase Succinyl-CoA:Acetate CoA-Transferase” (Frontiers in Chemistry, 2016)",
  "key": {"AarC (AarCH6) [1]": {"biological_target": "T1, AarC (AarCH6) (Acetobacter aceti, UniProt B3EY95)", "T1 construct": "C-terminal hexahistidine tag kept, plasmid pJK385 (N347A: pJK524), expressed in E. coli C41(DE3) pREP4-groESL, homodimer", "assay": "X-ray crystallography (co-crystal)", "type": "binding", "details": "sodium citrate, imidazole pH 8.2, 22 °C"}, "AarC (AarCH6) [2]": {"biological_target": "T2, AarC (AarCH6) (Acetobacter aceti, UniProt B3EY95, N347A)", "T2 construct": "C-terminal hexahistidine tag kept, plasmid pJK385 (N347A: pJK524), expressed in E. coli C41(DE3) pREP4-groESL, homodimer", "T2 sequence (B3EY95 whole entry N347A)": "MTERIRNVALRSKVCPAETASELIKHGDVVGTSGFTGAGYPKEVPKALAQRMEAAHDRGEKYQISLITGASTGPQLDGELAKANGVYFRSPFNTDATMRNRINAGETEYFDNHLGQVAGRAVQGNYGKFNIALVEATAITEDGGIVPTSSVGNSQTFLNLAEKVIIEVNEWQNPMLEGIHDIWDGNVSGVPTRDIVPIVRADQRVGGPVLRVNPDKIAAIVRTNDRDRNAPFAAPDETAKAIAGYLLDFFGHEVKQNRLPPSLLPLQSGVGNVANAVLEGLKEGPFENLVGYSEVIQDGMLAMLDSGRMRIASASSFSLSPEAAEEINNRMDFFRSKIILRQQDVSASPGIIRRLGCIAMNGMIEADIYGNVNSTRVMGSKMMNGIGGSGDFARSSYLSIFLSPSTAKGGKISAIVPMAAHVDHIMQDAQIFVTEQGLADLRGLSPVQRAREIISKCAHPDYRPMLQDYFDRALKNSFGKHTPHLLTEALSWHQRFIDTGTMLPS", "assay": "X-ray crystallography (co-crystal)", "type": "binding", "details": "10 mM CoA, sodium citrate, imidazole pH 8.2, 22 °C; 2.13 Å; active site"}},
  "data": [
    {"compound": "CCCNC(=O)CCNC(=O)[C@H](O)C(C)(C)COP(=O)(O)OP(=O)(O)OC[C@H]1O[C@@H](n2cnc3c(N)ncnc32)[C@H](O)[C@@H]1OP(=O)(O)O", "note": "[2a, 3′-phosphoadenosine 5′-(O-(N-propyl-R-pantothenamide))pyrophosphate]", "values": [
      {"measurement": "X-ray crystallography (co-crystal)", "setting": "AarC (AarCH6) [1]; 1-3 mM 2a, 1.66 Å, active site, 5dw6 is the complex with added acetate (1.55 Å)", "value": "The AarC•2a complex (PDB entry 5dw5) contained three chloride ions"}
    ]},
    {"compound": "CC(=O)O", "note": "[acetate]", "values": [
      {"measurement": "X-ray crystallography (co-crystal)", "setting": "AarC (AarCH6) [1]; 1-50 mM sodium acetate, 1.62 Å, three sites per subunit, the first near the active site, also in 5dw6 with 2a", "value": "The final model contained three acetate binding sites in each subunit"}
    ]},
    {"compound": "CC(C)(COP(=O)(O)OP(=O)(O)OC[C@H]1O[C@@H](n2cnc3c(N)ncnc32)[C@H](O)[C@@H]1OP(=O)(O)O)[C@@H](O)C(=O)NCCC(=O)NCCS", "note": "[CoA]", "values": [
      {"measurement": "X-ray crystallography (co-crystal)", "setting": "AarC (AarCH6) [2]", "value": "The B subunits of AarC-N347A (PDB entry 5ddk, white carbon atoms)"}
    ]}
  ]
}
